A word on the melting point: it is the temperature, or range, at which the solid turns liquid.

The values below come from patent US7351728B2, “Oxazolyl-aryloxyacetic acid derivatives and their use as PPAR agonists” (Eli Lilly and Company, priority 2003, dated 2008).

The structures appear in SMILES notation.

Data set [1] concerns HuapoAI transgenic mice. Description: Evaluation of triglyceride and cholesterol level in HuapoAI transgenic mice. The format is in vivo. The note with it: Mus musculus, 168 h, 30 mg/kg daily oral gavage 7 days; for change in vivo at 30 mg/kg: percent increase in FPLC HDLc area under the curve; for inhibition in vivo at 30 mg/kg: serum, male human apoAI transgenic mice, read-out: % Triglyceride Reduction. On the procedure:
Five to six week old male mice, transgenic for human apoAI [C57Bl/6-tgn(apoa1)lrub, Jackson Laboratory, Bar Harbor, Me.] were housed five per cage (10″×20″×8″ with aspen chip bedding) with food (Purina 5001) and water available at all times. After an acclimation period of 2 weeks, animals were individually identified by ear notches, weighed, and assigned to groups based on body weight. Beginning the following morning, mice were dosed daily by oral gavage for 7 days using a 20 gauge, 1½″ curved disposable feeding needle (Popper & Sons). Treatments were test compounds (30 mg/kg), a positive control (fenofibrate, 100 mg/kg) or vehicle [1% carboxymethylcellulose (w/v)/0.25% Tween80 (w/v); 0.2 ml/mouse]. Prior to termination on day 7, mice were weighed and dosed. Three hours after dosing, animals were anesthetized by inhalation of isoflurane (2-4%; Abbott Laboratories, Chicago, Ill.) and blood obtained via cardiac puncture (0.7-1.0 ml). Whole blood was transferred to serum separator tubes (Vacutainer SST), chilled on ice, and permitted to clot. Serum was obtained after centrifugation at 4° C. and frozen until analysis for triglycerides, total cholesterol, compound levels, and serum lipoprotein profile by fast protein liquid chromatography (FPLC) coupled to an inline detection system. After sacrifice by cervical dislocation, the liver, heart and epididymal fat pads were excised and weighed.
The animals dosed with vehicle had average triglycerides values of 60-80 mg/dl, which were reduced by the positive control fenofibrate (33-58 mg/dl with a mean reduction of 37%). The animals dosed with vehicle had average total serum cholesterol values of 140-180 mg/dl, which were increased by fenofibrate (190-280 mg/dl, with a mean elevation of 41%). […] Fenofibrate increased the amount of HDLc (68-96 v-sec with a mean percent increase of 48%).
Glucose was measured colorimetrically using commercially purchased reagents (Sigma #315-500). According to the manufacturers, the procedures were modified from published work (McGowan, M. W., Artiss, J. D., Strandbergh, D. R. & Zak, B. Clin Chem, 20:470-5 (1974) and Keston, A. Specific colorimetric enzymatic analytical reagents for glucose. Abstract of papers 129th Meeting ACS, 31C (1956).); and depend on the release of a mole of hydrogen peroxide for each mole of analyte, coupled with a color reaction first described by Trinder (Trinder, P. Determination of glucose in blood using glucose oxidase with an alternative oxygen acceptor. Ann Clin Biochem, 6:24 (1969)). The absorbance of the dye produced is linearly related to the analyte in the sample. The assays were further modified in our laboratory for use in a 96 well format. Standards (Sigma #339-11, Sigma #16-11, and Sigma #CC0534 for glucose triglycerides and total cholesterol, respectively), quality control plasma (Sigma # A2034), and samples (2 or 5 μl/well) were measured in duplicate using 200 μl of reagent. An additional aliquot of sample, pipetted to a third well and diluted in 200 μl water, provided a blank for each specimen. Plates were incubated at room temperature (18, 15, and 10 minutes for glucose, triglycerides and total cholesterol, respectively) on a plate shaker (DPC Micormix 5) and absorbance read at 500 nm (glucose and total cholesterol) or 540 nm (triglycerides) on a plate reader (Wallac Victor 1420). Sample absorbances were compared to a standard curve (100-800, 10-500, and 100-400 mg/dl for glucose, triglycerides and total cholesterol, respectively). Values for the quality control sample were always within the expected range and the coefficient of variation for samples was below 10%. All samples from an experiment were assayed at the same time to minimize inter-assay variability.
Serum lipoproteins were separated and cholesterol quantitated with an in-line detection system. Sample was applied to a Superose® 6 HR 10/30 size exclusion column (Amersham Pharmacia Biotech) and eluted with phosphate buffered saline-EDTA at 0.5 ml/min. […]

The test system of data set [2] is huPPARα. In words: Cotransfection assay in CV-1 cells, luciferase reporter (GAL4 chimeric system). The class given is cell-based, human. The conditions noted are these: cotransfection efficacy relative to PPARα agonist reference molecule. On the procedure: DNA-dependent binding (ABCD binding) was carried out using SPA technology with PPAR receptors. Tritium-labeled PPARα and PPARγ agonists were used as radioligands for generating displacement curves and IC50 values with compounds of the invention. Cotransfection assays were carried out in CV-1 cells. The reporter plasmid contained an acylCoA oxidase (AOX) PPRE and TK promoter upstream of the luciferase reporter cDNA. Appropriate PPARs and RXRα were constitutively expressed using plasmids containing the CMV promoter. […] In order to eliminate such interference, a GAL4 chimeric system was used in which the DNA binding domain of the transfected PPAR was replaced by that of GAL4, and the GAL4 response element was utilized in place of the AOX PPRE. Cotransfection efficacy was determined relative to PPARα agonist and PPARγ agonist reference molecules. Efficacies were determined by computer fit to a concentration-response curve, or in some cases at a single high concentration of agonist (10 μM). For binding or cotransfection studies with receptors other than PPARs, similar assays were carried out using appropriate ligands, receptors, reporter constructs, etc., for that particular receptor.
These studies were carried out to evaluate the ability of compounds of the invention to bind to and/or activate various nuclear transcription factors, particularly huPPARα (“hu” indicates “human”) and huPPARγ. These studies provide in vitro data concerning efficacy and selectivity of compounds of the invention. Furthermore, binding and cotransfection data for compounds of the invention were compared with corresponding data for marketed compounds that act on either huPPARα or huPPARγ.
Binding and cotransfection data for representative compounds of the invention are compared with corresponding data for reference compounds in Table II.
(In general: Reporter assays use an easily measured gene product as a stand-in for the process of interest.)

Turning to `Cc1oc(-c2ccccc2)nc1CCOc1ccc(OC(C)(C)C(=O)O)cc1` [Example 1, 2-Methyl-2-{4-[2-(5-methyl-2-phenyloxazol-4-yl)ethoxy]phenoxy}propionic acid], in data set [1], the change in vivo at 30 mg/kg was 77% and the inhibition in vivo at 30 mg/kg was 79.2%. For the same compound, the “huPPARα CTF Eff. (%)” value in data set [2] is on record as 72%.
In turn, `Cc1oc(-c2cccc(Br)c2)nc1CCOc1ccc(OC(C)(C)C(=O)O)cc1` [Example 9A, 2-(4-{2-[2-(3-Bromophenyl)-5-methyloxazol-4-yl]ethoxy}phenoxy)-2-methylpropionic acid] showed a melting point of 158 to 159 °C. For the same compound, in data set [1], the change in vivo at 30 mg/kg came out at 118% and the inhibition in vivo at 30 mg/kg is 67.1%. Also, the “huPPARα CTF Eff. (%)” value in data set [2] is given as 82%.
In turn, `CCc1cccc(-c2nc(CCOc3ccc(OC(C)(C)C(=O)O)cc3)c(C)o2)c1` [Example 12, 2-(4-{2-[2-(3-Ethylphenyl)-5-methyloxazol-4-yl]ethoxy}phenoxy)-2-methylpropionic acid] showed a melting point of 134 to 135 °C. Further, in data set [1], the change in vivo at 30 mg/kg was found to be 180% and the inhibition in vivo at 30 mg/kg was found to be 74.3%. Moreover, the “huPPARα CTF Eff. (%)” value in data set [2] turned out to be 68%.
On to `Cc1oc(-c2cccc(CCc3ccccc3)c2)nc1CCOc1ccc(OC(C)(C)C(=O)O)cc1` [Example 12A, 2-Methyl-2-(4-{2-[5-methyl-2-(3-phenethylphenyl)oxazol-4-yl]ethoxy}phenoxy)-propionic acid], for which the melting point lay in the range of 124 to 125 °C. In data set [1], this compound came in with a change in vivo at 30 mg/kg of 47%. Also, the “huPPARα CTF Eff. (%)” value in data set [2] is on record as 74%.
As for `CCc1ccc(-c2nc(CCOc3ccc(OC(C)(C)C(=O)O)cc3)c(C)o2)cc1` [Example 13, 2-(4-{2-[2-(4-Ethylphenyl)-5-methyloxazol-4-yl]ethoxy}phenoxy)-2-methylpropionic acid], in data set [1], the change in vivo at 30 mg/kg was 133% and the inhibition in vivo at 30 mg/kg is 44.8%. In addition, the “huPPARα CTF Eff. (%)” value in data set [2] amounted to 73%.
`Cc1oc(-c2ccc(OC3CCCCC3)cc2)nc1CCOc1ccc(OC(C)(C)C(=O)O)cc1` [Example 21, 2-(4-{2-[2-(4-Cyclohexyloxy-phenyl)-5-methyl-oxazol-4-yl]-ethoxy}-phenoxy)-2-methyl-propionic acid]: in data set [1], the change in vivo at 30 mg/kg is 9%. For the same compound, the “huPPARα CTF Eff. (%)” value in data set [2] turned out to be 78%.
For the compound `Cc1cc(OCCc2nc(-c3ccccc3)oc2C)ccc1OC(C)(C)C(=O)O` [Example 24, 2-Methyl-2-{2-methyl-4-[2-(5-methyl-2-phenyloxazol-4-yl)ethoxy]phenoxy}propionic acid], the melting point is 117 °C. Moreover, in data set [1], the change in vivo at 30 mg/kg is 61% and the inhibition in vivo at 30 mg/kg came out at 75%. Besides, the “huPPARα CTF Eff. (%)” value in data set [2] amounted to 73%.
In the case of `CCCc1cc(OCCc2nc(-c3ccccc3)oc2C)ccc1OCC(=O)O` [Example 26, {4-[2-(5-methyl-2-phenyl-oxazol-4-yl)ethoxy]-2-propylphenoxy}acetic acid], in data set [1], the change in vivo at 30 mg/kg was found to be 19% and the inhibition in vivo at 30 mg/kg stood at 25.5%. Moreover, the “huPPARα CTF Eff. (%)” value in data set [2] is reported as 35%.
The matching figures for `CCCc1cc(OCCc2nc(-c3ccccc3)oc2C)ccc1OC(C)(C)C(=O)O` [Example 26A, 2-Methyl-2-{4-[2-(5-methyl-2-phenyloxazol-4-yl)ethoxy]-2-propylphenoxy}propionic acid]: 43%, 35.9% and 75%.
For `CCCc1cc(OC(C)(C)C(=O)O)ccc1OCCc1nc(-c2ccccc2)oc1C` [Example 27A, 2-Methyl-2-{4-[2-(5-methyl-2-phenyloxazol-4-yl)ethoxy]-3-propylphenoxy}propionic acid], in that order: 52%, 29.5% and 95%.
For `CCc1cc(OCCc2nc(-c3ccccc3)oc2C)ccc1OC(C)(C)C(=O)O` [Example 30A, 2-{2-Ethyl-4-[2-(5-methyl-2-phenyloxazol-4-yl)ethoxy]phenoxy}2-methylpropionic acid], in that order: 93%, 51.8% and 80%.
Turning to `Cc1oc(-c2ccccc2)nc1CCOc1ccc(OC(C)(C)C(=O)O)c(CC(C)C)c1` [Example 30C, 2-{2-Isobutyl-4-[2-(5-methyl-2-phenyloxazol-4-yl)ethoxy]phenoxy}-2-methylpropionic acid], in data set [1], the change in vivo at 30 mg/kg came to 31% and the inhibition in vivo at 30 mg/kg was found to be 6.2%. Besides, the “huPPARα CTF Eff. (%)” value in data set [2] is reported as 67%.
`Cc1oc(-c2ccccc2)nc1CCOc1ccc(OC(C)(C)C(=O)O)c(CCc2ccccc2)c1` [Example 30J, 2-Methyl-2-{4-[2-(5-methyl-2-phenyloxazol-4-yl)ethoxy]-2-phenethylphenoxy}propionic acid] had a change in vivo at 30 mg/kg in data set [1] of 77%. In addition, the “huPPARα CTF Eff. (%)” value in data set [2] was determined as 90%.
As to `CCCCc1cc(OC(C)(C)C(=O)O)ccc1OCCc1nc(-c2ccccc2)oc1C` [Example 31F, 2-{3-Butyl-4-[2-(5-methyl-2-phenyloxazol-4-yl)ethoxy]phenoxy}-2-methylpropionic acid], in data set [1], the change in vivo at 30 mg/kg was 79% and the inhibition in vivo at 30 mg/kg amounted to 35.7%. Moreover, in data set [2], the “huPPARα CTF Eff. (%)” value came to 70%.
For the compound `Cc1oc(-c2ccccc2)nc1CCOc1ccc(OC(C)(C)C(=O)O)c(Cc2ccccc2)c1` [Example 32, 2-{2-Benzyl-4-[2-(5-methyl-2-phenyloxazol-4-yl)ethoxy]phenoxy}-2-methylpropionic acid], in data set [1], the change in vivo at 30 mg/kg was 20%. Moreover, the “huPPARα CTF Eff. (%)” value in data set [2] turned out to be 82%.
As for `Cc1oc(-c2ccccc2)nc1CCOc1ccc(OC(C)(C)C(=O)O)c2ccccc12` [Example 37, 2-Methyl-2-{4-[2-(5-methyl-2-phenyl-oxazol-4-yl)-ethoxy]-naphthalen-1-yloxy}-propionic acid], in data set [1], the change in vivo at 30 mg/kg was determined as 94% and the inhibition in vivo at 30 mg/kg was found to be 29.9%. In addition, in data set [2], the “huPPARα CTF Eff. (%)” value is on record as 91%.
For `Cc1oc(-c2ccccc2)nc1CCOc1ccc(OC(C)(C)C(=O)O)c2c1CCCC2` [Example 38, 2-Methyl-2-{4-[2-(5-methyl-2-phenyl-oxazol-4-yl)-ethoxy]-5,6,7,8-tetrahydro-naphthalen-1-yloxy}-propionic acid], in that order: 86%, 39% and 80%.
